From ChEMBL document CHEMBL1201862, “PubChem BioAssay data set” (2004)
“And” between values parts separate entries of the source, which are not always exact repeats. Identical values can stand only once.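 Grown in 96-well plates, cells were treated for 48 hours with each compound at five concentrations. Insufficient inhibition: endpoint recorded as highest concentration tested. GI50 = concentration required for 50% inhibition of growth.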 The source made the active and inactive calls. No stated cut-off is given here; in the data, active = GI50 up to about 1.1 µM and inactive = higher.

Legend:
Assay in all cases: NCI-60 cell line screen, 48 h
SN12C = test system: SN12C
A549 = test system: A549
OVCAR-5 = test system: OVCAR-5
U-251 = test system: U-251
HOP-62 = test system: HOP-62
ACHN = test system: ACHN
NCI-H460 = test system: NCI-H460
MDA-MB-231 = test system: MDA-MB-231
UO-31 = test system: UO-31
SF-295 = test system: SF-295
OVCAR-8 = test system: OVCAR-8
DU-145 = test system: DU-145
OVCAR-3 = test system: OVCAR-3
LOX IMVI = test system: LOX IMVI
A498 = test system: A498
NCI-H522 = test system: NCI-H522
OVCAR-4 = test system: OVCAR-4
KM12 = test system: KM12
IGROV-1 = test system: IGROV-1
CAKI-1 = test system: CAKI-1
SK-OV-3 = test system: SK-OV-3
CCRF-CEM = test system: CCRF-CEM
MDA-MB-435 = test system: MDA-MB-435
NCI-H226 = test system: NCI-H226
SF-268 = test system: SF-268
SF-539 = test system: SF-539
Malme-3M = test system: Malme-3M
HCC 2998 = test system: HCC 2998
HCT-15 = test system: HCT-15
K562 = test system: K562
EKVX = test system: EKVX
HOP-92 = test system: HOP-92
SK-MEL-28 = test system: SK-MEL-28
SK-MEL-5 = test system: SK-MEL-5
UACC-257 = test system: UACC-257
HCT-116 = test system: HCT-116
MCF7 = test system: MCF7
RXF 393 = test system: RXF 393
MDA-N = test system: MDA-N
SNB-19 = test system: SNB-19
MOLT-4 = test system: MOLT-4
SR = test system: SR
HT-29 = test system: HT-29
Hs-578T = test system: Hs-578T
786-0 = test system: 786-0
RPMI-8226 = test system: RPMI-8226
UACC-62 = test system: UACC-62
COLO 205 = test system: COLO 205
NCI-H23 = test system: NCI-H23
M14 = test system: M14
NCI/ADR-RES = test system: NCI/ADR-RES
SW-620 = test system: SW-620
BT-549 = test system: BT-549
TK-10 = test system: TK-10
SNB-75 = test system: SNB-75
PC-3 = test system: PC-3
HL-60 = test system: HL-60
SK-MEL-2 = test system: SK-MEL-2
T47D = test system: T47D

Measured: GI50

Oc1c2c(nc3cc4c(cc13)OCO4)-c1ccccc1CCC2
> 50 µM: HCT-15
inactive: SN12C > 50 µM | A549 > 50 µM | OVCAR-5 > 50 µM | U-251 > 50 µM | HOP-62 > 50 µM | ACHN > 50 µM | NCI-H460 > 50 µM | MDA-MB-231 > 50 µM | UO-31 > 50 µM | SF-295 17.1 µM | OVCAR-8 48.5 µM | DU-145 > 50 µM | OVCAR-3 > 50 µM | LOX IMVI 43.3 µM | A498 > 50 µM | NCI-H522 > 50 µM | OVCAR-4 30.2 µM | KM12 > 50 µM | IGROV-1 30.2 µM | CAKI-1 > 50 µM | SK-OV-3 > 50 µM | CCRF-CEM > 50 µM | MDA-MB-435 23.7 µM | NCI-H226 > 50 µM | SF-268 > 50 µM | SF-539 > 50 µM | Malme-3M > 50 µM | HCC 2998 > 50 µM | K562 > 50 µM | EKVX > 50 µM | HOP-92 > 50 µM | SK-MEL-28 > 50 µM | SK-MEL-5 45.6 µM | UACC-257 > 50 µM | HCT-116 28.1 µM | MCF7 26.5 µM | RXF 393 > 50 µM | MDA-N 18.9 µM | SNB-19 > 50 µM | MOLT-4 > 50 µM | SR 12.3 µM | HT-29 34.4 µM | Hs-578T 15.9 µM | 786-0 > 50 µM | RPMI-8226 > 50 µM | UACC-62 > 50 µM | COLO 205 > 50 µM | NCI-H23 > 50 µM | M14 49.3 µM | NCI/ADR-RES > 50 µM | SW-620 > 50 µM | BT-549 > 50 µM | TK-10 > 50 µM | SNB-75 > 50 µM | PC-3 > 50 µM

C=CCOC1OC(CS(=O)(=O)O)C(OC(C)=O)C(OC(C)=O)C1OC(C)=O (configuration not stated)
> 100 µM: HCT-15
inactive: SN12C > 100 µM | OVCAR-5 > 100 µM | U-251 > 100 µM | HOP-62 > 100 µM | NCI-H460 > 100 µM | UO-31 > 100 µM | HL-60 > 100 µM | SF-295 > 100 µM | OVCAR-8 > 100 µM | DU-145 > 100 µM | OVCAR-3 > 100 µM | LOX IMVI > 100 µM | A498 > 100 µM | OVCAR-4 > 100 µM | KM12 > 100 µM | IGROV-1 > 100 µM | CAKI-1 > 100 µM | SK-OV-3 > 100 µM | CCRF-CEM > 100 µM | SK-MEL-2 > 100 µM | T47D > 100 µM | MDA-MB-435 > 100 µM | NCI-H226 > 100 µM | Malme-3M > 100 µM | HCC 2998 > 100 µM | K562 38.1 µM | HOP-92 > 100 µM | SK-MEL-28 > 100 µM | SK-MEL-5 > 100 µM | UACC-257 > 100 µM | HCT-116 > 100 µM | MCF7 > 100 µM | RXF 393 > 100 µM | MDA-N > 100 µM | SNB-19 > 100 µM | MOLT-4 > 100 µM | SR > 100 µM | HT-29 > 100 µM | Hs-578T > 100 µM | RPMI-8226 > 100 µM | UACC-62 > 100 µM | COLO 205 > 100 µM | NCI-H23 > 100 µM | M14 > 100 µM | NCI/ADR-RES > 100 µM | SW-620 > 100 µM | BT-549 > 100 µM | TK-10 > 100 µM | SNB-75 > 100 µM | PC-3 > 100 µM

CCCCC(O)(c1ccccc1)C(O)(c1ccccc1)c1c(F)c(F)c(F)c(F)c1F (configuration not stated)
inactive: SN12C 17.1 µM | A549 28.4 µM | OVCAR-5 18.3 µM | U-251 17.3 µM | HOP-62 17.5 µM | ACHN 19.6 µM | NCI-H460 23.7 µM | MDA-MB-231 16 µM | UO-31 30.3 µM | HL-60 21.3 µM | SF-295 > 10 µM | OVCAR-8 22.1 µM | DU-145 48.1 µM | OVCAR-3 17.4 µM | A498 25.5 µM | OVCAR-4 44.4 µM | IGROV-1 33.3 µM | SK-OV-3 21.5 µM | CCRF-CEM 25.4 µM | T47D 35.4 µM | MDA-MB-435 31.8 µM | NCI-H226 26 µM | SF-268 20 µM | Malme-3M 16.7 µM | HCC 2998 15.7 µM | K562 27.4 µM | EKVX 17.9 µM | HOP-92 17.4 µM | SK-MEL-28 27 µM | SK-MEL-5 18.4 µM | UACC-257 18.2 µM | HCT-116 18.1 µM | MCF7 20.3 µM | MDA-N 17.9 µM | SNB-19 41.8 µM | MOLT-4 16.8 µM | SR 25.3 µM | HT-29 14.1 µM | 786-0 20.1 µM | RPMI-8226 18.2 µM | UACC-62 17.4 µM | COLO 205 > 10 µM | NCI-H23 29 µM | M14 30.3 µM | NCI/ADR-RES 19.5 µM | SW-620 25.2 µM | BT-549 33.3 µM | TK-10 26.4 µM | SNB-75 37.2 µM | PC-3 19.1 µM
13.5 µM: HCT-15

CC(=O)c1c(-c2ccc(Cl)cc2)c(C#N)c(=S)n(C2OC(CO)C(O)C(O)C2O)c1-c1ccccc1 (configuration not stated)
inactive: SN12C > 100 µM and > 85.7 µM | ACHN 55.2 µM and 45.5 µM | SF-295 > 100 µM and 70.6 µM | OVCAR-8 > 100 µM and > 57.3 µM | DU-145 > 100 µM and > 93.3 µM | OVCAR-3 > 80.4 µM and 64.9 µM | NCI-H522 > 100 µM and 53.8 µM | KM12 > 100 µM and > 68.9 µM | IGROV-1 62.8 µM | CAKI-1 45.2 µM and > 89.1 µM | SK-OV-3 > 100 µM | T47D > 82.6 µM | MDA-MB-435 77.6 µM | NCI-H226 61.4 µM | SF-268 89.3 µM and 61.5 µM | Malme-3M > 100 µM | HCC 2998 > 100 µM and > 83.8 µM | SK-MEL-28 82.2 µM | UACC-257 > 100 µM | MCF7 > 100 µM and > 71 µM | RXF 393 83.4 µM and 75.5 µM | MDA-N 80.7 µM and 48.2 µM | HT-29 > 100 µM and 52.1 µM | Hs-578T > 100 µM | RPMI-8226 31.9 µM | NCI-H23 > 100 µM | M14 > 100 µM | NCI/ADR-RES > 100 µM and 98.9 µM | SW-620 59.6 µM | BT-549 > 100 µM | TK-10 > 100 µM | SNB-75 14.7 µM

COc1cc(/C=C2\C[C@H]3[C@@H]4CCc5cc(OCCN6CCCC6)ccc5[C@H]4CC[C@]3(C)C2=O)cc(OC)c1OC
inactive: SN12C 1.72 µM | A549 1.69 µM | OVCAR-5 1.67 µM | HOP-62 1.77 µM | ACHN 1.79 µM | NCI-H460 1.76 µM | MDA-MB-231 1.79 µM | UO-31 1.54 µM | SF-295 1.79 µM | OVCAR-8 1.63 µM | DU-145 1.87 µM | LOX IMVI 1.69 µM | A498 1.78 µM | OVCAR-4 1.6 µM | KM12 1.69 µM | IGROV-1 1.57 µM | CAKI-1 1.75 µM | SK-OV-3 2.7 µM | SK-MEL-2 2.26 µM | T47D 1.95 µM | MDA-MB-435 1.61 µM | NCI-H226 1.97 µM | SF-539 1.61 µM | HCC 2998 1.83 µM | K562 1.62 µM | EKVX 2.39 µM | SK-MEL-5 1.53 µM | UACC-257 2.2 µM | HCT-116 1.54 µM | MCF7 1.65 µM | RXF 393 1.57 µM | MDA-N 1.67 µM | SNB-19 2.3 µM | MOLT-4 1.31 µM | 786-0 1.85 µM | RPMI-8226 1.66 µM | UACC-62 2.52 µM | COLO 205 1.48 µM | NCI-H23 2.41 µM | M14 1.67 µM | NCI/ADR-RES 1.91 µM | SW-620 1.91 µM | BT-549 15.5 µM | TK-10 2.53 µM | PC-3 1.73 µM
active: SR 0.314 µM
1.68 µM: HCT-15
